According to the supplement of paper PMC10307832:

How the values were obtained:
Assay in all cases: relative viability (nuclei count vs DMSO), 5 days (fraction); higher = more cells survive
BI-D1870 + Decitabine = compound: CC(C)CCN1c2nc(Nc3cc(F)c(O)c(F)c3)ncc2N(C)C(=O)C1C [BI-D1870] + Nc1ncn([C@H]2C[C@H](O)[C@@H](CO)O2)c(=O)n1 [Decitabine] (partner 2 µM)
Outline: (§1)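 Relative viability divides the nuclei count in treated wells by that in vehicle wells. Lung cancer cell lines were seeded in 1536-well plates, dosed by pin tool the next day, and fixed and stained after 5 days in one step with final 0.05% Triton X-100, 1% formaldehyde and 1 ug/ml Hoechst. Dosing was a single drug or a fixed anchor-drug dose plus five library-drug doses (not always all listed) in √10 steps, and values are medians of duplicate plates imaged at 4×.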

Zebularine + AZD7762 = compound: O=c1ncccn1[C@@H]1O[C@H](CO)[C@@H](O)[C@H]1O [Zebularine] + NC(=O)Nc1cc(-c2cccc(F)c2)sc1C(=O)N[C@H]1CCCNC1 [AZD7762] (partner 0.2 µM)
Outline: as §1

Zebularine + Trametinib = compound: O=c1ncccn1[C@@H]1O[C@H](CO)[C@@H](O)[C@H]1O [Zebularine] + CC(=O)Nc1cccc(-n2c(=O)n(C3CC3)c(=O)c3c(Nc4ccc(I)cc4F)n(C)c(=O)c(C)c32)c1 [Trametinib] (partner 0.02 µM)
Outline: as §1

BI-D1870 + Pictilisib = compound: CC(C)CCN1c2nc(Nc3cc(F)c(O)c(F)c3)ncc2N(C)C(=O)C1C [BI-D1870] + CS(=O)(=O)N1CCN(Cc2cc3nc(-c4cccc5[nH]ncc45)nc(N4CCOCC4)c3s2)CC1 [Pictilisib] (partner 1 µM)
Outline: as §1

| Cell Line | relative viability (BI-D1870 + Decitabine; first compound 0.04 µM) | relative viability (BI-D1870 + Decitabine; first compound 0.1265 µM) | relative viability (BI-D1870 + Decitabine; first compound 0.4 µM) | relative viability (BI-D1870 + Decitabine; first compound 1.265 µM) | relative viability (BI-D1870 + Decitabine; first compound 4 µM) | relative viability (Zebularine + AZD7762; first compound 1 µM) | relative viability (Zebularine + AZD7762; first compound 3.162 µM) | relative viability (Zebularine + AZD7762; first compound 10 µM) | relative viability (Zebularine + AZD7762; first compound 31.62 µM) | relative viability (Zebularine + AZD7762; first compound 100 µM) | relative viability (Zebularine + Trametinib; first compound 1 µM) | relative viability (Zebularine + Trametinib; first compound 3.162 µM) | relative viability (Zebularine + Trametinib; first compound 10 µM) | relative viability (Zebularine + Trametinib; first compound 31.62 µM) | relative viability (Zebularine + Trametinib; first compound 100 µM) | relative viability (BI-D1870 + Pictilisib; first compound 0.04 µM) | relative viability (BI-D1870 + Pictilisib; first compound 0.1265 µM) | relative viability (BI-D1870 + Pictilisib; first compound 0.4 µM) | relative viability (BI-D1870 + Pictilisib; first compound 1.265 µM) | relative viability (BI-D1870 + Pictilisib; first compound 4 µM) |
| --- | --- | --- | --- | --- | --- | --- | --- | --- | --- | --- | --- | --- | --- | --- | --- | --- | --- | --- | --- | --- |
| 201T | 0.886 | 0.849 | 0.847 | 0.848 | 0.879 | 0.674 | 0.594 | 0.426 | 0.691 | 0.607 | 0.793 | 0.767 | 0.647 | 0.741 | 0.719 | 0.672 | 0.624 | 0.716 | 0.684 | 0.642 |
| A549 | 0.213 | 0.282 | 0.27 | 0.288 | 0.236 | – | – | – | – | – | – | – | – | – | – | 0.725 | 0.499 | 0.369 | 0.465 | 0.0705 |
| A-427 | 0.573 | 0.499 | 0.561 | 0.685 | 0.638 | 0.753 | 0.628 | 0.487 | 0.501 | 0.287 | 0.763 | 0.746 | 0.698 | 0.448 | 0.267 | 0.824 | 0.553 | 0.689 | 0.716 | 0.654 |
| ABC-1 | 0.885 | 1.05 | 1.15 | 0.942 | 1.03 | 0.816 | – | 0.554 | 0.538 | 0.54 | – | – | – | – | – | 0.751 | 0.673 | 0.633 | 0.744 | 0.566 |
| BEN | 0.748 | 0.617 | 0.733 | 0.738 | 0.844 | 0.808 | 0.587 | 0.504 | 0.496 | 0.296 | 0.996 | 0.994 | 0.781 | 0.491 | 0.49 | 0.56 | 0.608 | 0.566 | 0.608 | 0.507 |
| CAL-12T | – | – | – | – | – | 0.659 | 0.674 | 0.501 | 0.689 | 0.602 | 0.381 | 0.338 | 0.309 | 0.328 | 0.319 | 0.554 | 0.363 | 0.382 | 0.657 | 0.336 |
| COR-L23 | 0.445 | 0.402 | 0.508 | 0.526 | 0.405 | – | – | – | – | – | 0.642 | 0.602 | 0.463 | 0.575 | 0.241 | 1.08 | 0.695 | 0.743 | 0.732 | 0.643 |
| COR-L 105 | 0.668 | 0.516 | 0.668 | 0.733 | 0.656 | – | – | – | – | – | 0.517 | 0.394 | 0.439 | 0.459 | 0.396 | 0.4 | 0.405 | 0.407 | 0.474 | 0.386 |
| Calu-6 | – | – | – | – | – | – | – | – | – | – | – | – | – | – | – | 1.03 | 0.82 | 0.868 | 0.704 | 0.367 |
| ChaGo-K-1 | 0.527 | 0.468 | 0.506 | 0.519 | 0.511 | 0.916 | 0.862 | 0.427 | 0.337 | 0.249 | 0.913 | 0.874 | 0.438 | 0.246 | 0.204 | 0.757 | 0.807 | 0.502 | 0.758 | 0.407 |
| EBC-1 | – | – | – | – | – | – | – | – | – | – | – | – | – | – | – | 0.459 | 0.451 | 0.354 | 0.363 | 0.123 |
| EKVX | 0.328 | 0.309 | 0.374 | 0.436 | 0.39 | 0.846 | 0.816 | – | 0.593 | 0.772 | 0.51 | 0.328 | – | 0.294 | 0.321 | 0.488 | 0.388 | 0.412 | 0.453 | 0.403 |
| EMC-BAC-2 | 1.02 | 0.985 | 1.01 | 1.27 | 1.02 | 1.19 | 1.2 | 0.792 | 1.2 | 1.15 | 0.97 | 0.9 | 0.766 | 0.901 | 0.941 | 0.626 | 0.48 | 0.514 | 0.637 | 0.535 |
| EPLC-272H | 0.372 | 0.346 | 0.417 | 0.359 | 0.372 | 0.171 | – | 0.183 | 0.192 | 0.24 | 0.348 | – | 0.258 | 0.223 | 0.352 | 0.364 | 0.295 | 0.275 | 0.312 | 0.243 |
| H3255 | 0.633 | 0.643 | 0.571 | 0.749 | 0.648 | 1.08 | 0.909 | 0.744 | 0.995 | 0.904 | 0.635 | 0.65 | – | 0.665 | 0.599 | 0.505 | 0.458 | 0.451 | 0.584 | 0.497 |
| HARA | 0.513 | 0.527 | 0.568 | 0.683 | 0.684 | 0.417 | 0.31 | 0.303 | 0.371 | 0.336 | 1.03 | 0.458 | 0.48 | 0.688 | 0.651 | 0.597 | 0.314 | 0.458 | 0.518 | 0.366 |
| HCC-15 | 0.674 | 0.623 | 0.627 | 0.72 | 0.465 | 1.24 | 1.41 | 0.883 | 1.17 | 0.984 | 0.375 | 0.377 | 0.395 | 0.392 | 0.298 | 0.792 | 0.661 | 0.674 | 0.79 | 0.509 |
| HCC-44 | 0.987 | 0.973 | 0.96 | 1.03 | 1.04 | 1.11 | 1.03 | 1.15 | 1.14 | 1.01 | 1.04 | 1.11 | 0.968 | 1.1 | 0.668 | 0.651 | 0.498 | 0.617 | 0.768 | 0.443 |
| HCC-78 | 0.755 | 0.774 | 0.791 | 0.727 | 0.746 | 0.716 | 0.743 | – | 0.648 | 0.468 | 0.893 | 0.742 | – | 0.794 | 0.436 | 0.213 | 0.185 | 0.249 | 0.21 | 0.236 |
